PubChem BioAssay AID2060501 (Molecular Pharmacology Branch, DTP, NCI, 2025)
pIC50: −log10 of the molar value.

Tested on: 282377-053-R-J1-PDC complex spheroids, viability
Assay: Anticancer human tumor 282377-053-R-J1-PDC patient-derived colon adenocarcinoma cell line growth inhibition [GQUAD]
Conditions: for pIC50: curve of first compound; for viability, T/C: stronger effect = lower value
Procedure, shortened: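 Multi-cell-type spheroids of tumor cells with HUVEC and mesenchymal stem cells, treated with drug combinations. Concentrations descend in half-log steps from near clinical Cmax, or from 10 microM where Cmax is unknown; viability read-out.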

[1] = second compound 0.0316 µM, first compound 0.0316 µM
[2] = second compound 0.0316 µM, first compound 0.1 µM
[3] = second compound 0.0316 µM, first compound 0.316 µM
[4] = second compound 0.0316 µM, first compound 1 µM
[5] = second compound 0.0316 µM, first compound 3.16 µM
[6] = second compound 0.0316 µM, first compound 10 µM
[7] = second compound 0.1 µM, first compound 0.0316 µM
[8] = second compound 0.1 µM, first compound 0.1 µM
[9] = second compound 0.1 µM, first compound 0.316 µM
[10] = second compound 0.1 µM, first compound 1 µM
[11] = second compound 0.1 µM, first compound 3.16 µM
[12] = second compound 0.1 µM, first compound 10 µM
[13] = second compound 0.316 µM, first compound 0.0316 µM
[14] = second compound 0.316 µM, first compound 0.1 µM
[15] = second compound 0.316 µM, first compound 0.316 µM
[16] = second compound 0.316 µM, first compound 1 µM
[17] = second compound 0.316 µM, first compound 3.16 µM
[18] = second compound 0.316 µM, first compound 10 µM
[19] = second compound 1 µM, first compound 0.0316 µM
[20] = second compound 1 µM, first compound 0.1 µM
[21] = second compound 1 µM, first compound 0.316 µM
[22] = second compound 1 µM, first compound 1 µM
[23] = second compound 1 µM, first compound 3.16 µM
[24] = second compound 1 µM, first compound 10 µM
[25] = second compound 3.16 µM, first compound 0.0316 µM
[26] = second compound 3.16 µM, first compound 0.1 µM
[27] = second compound 3.16 µM, first compound 0.316 µM
[28] = second compound 3.16 µM, first compound 1 µM
[29] = second compound 3.16 µM, first compound 3.16 µM
[30] = second compound 3.16 µM, first compound 10 µM
[31] = second compound 10 µM, first compound 0.0316 µM
[32] = second compound 10 µM, first compound 0.1 µM
[33] = second compound 10 µM, first compound 0.316 µM
[34] = second compound 10 µM, first compound 1 µM
[35] = second compound 10 µM, first compound 3.16 µM
[36] = second compound 10 µM, first compound 10 µM
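Further: spheroids exposed to compounds for 7 days before readout.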
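Wherever viability, T/C is given: percent of vehicle DMSO control viability with 100% = untreated-like growth.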

## C#Cc1c(F)ccc2cc(O)cc(-c3ncc4c(N5CC6CCC(C5)N6)nc(OCC56CCCN5CC(F)C6)nc4c3F)c12 (stereo unspecified) + Cc1cnc(CNC(=O)c2c(=O)c3ccc(N4CCCN(C)CC4)nc3n3c2sc2ccccc23)cn1
Second compound 0.0316 µM
  pIC50: < 5.00
Second compound 0.1 µM
  pIC50: < 5.00
Second compound 0.316 µM
  pIC50: < 5.00
Second compound 1 µM
  pIC50: < 5.00
Second compound 3.16 µM
  pIC50: 5.38
Second compound 10 µM
  pIC50: > 7.50
[1]
  viability, T/C: 102%
[2]
  viability, T/C: 87.4%
[3]
  viability, T/C: 122%
[4]
  viability, T/C: 83.2%
[5]
  viability, T/C: 100%
[6]
  viability, T/C: 94.7%
[7]
  viability, T/C: 127%
[8]
  viability, T/C: 109%
[9]
  viability, T/C: 89.9%
[10]
  viability, T/C: 86%
[11]
  viability, T/C: 120%
[12]
  viability, T/C: 93.5%
[13]
  viability, T/C: 86.5%
[14]
  viability, T/C: 102%
[15]
  viability, T/C: 85.5%
[16]
  viability, T/C: 77.1%
[17]
  viability, T/C: 91.3%
[18]
  viability, T/C: 83.9%
[19]
  viability, T/C: 64.3%
[20]
  viability, T/C: 47.6%
[21]
  viability, T/C: 47.2%
[22]
  viability, T/C: 59.2%
[23]
  viability, T/C: 71.8%
[24]
  viability, T/C: 58.5%
[25]
  viability, T/C: 46.5%
[26]
  viability, T/C: 53%
[27]
  viability, T/C: 58.5%
[28]
  viability, T/C: 52.2%
[29]
  viability, T/C: 51.7%
[30]
  viability, T/C: 44.1%
[31]
  viability, T/C: 36.8%
[32]
  viability, T/C: 40.3%
[33]
  viability, T/C: 52.9%
[34]
  viability, T/C: 46%
[35]
  viability, T/C: 45.7%
[36]
  viability, T/C: 37.8%

## CC(=O)O[C@H]1C(=O)[C@@]2(C)[C@H]([C@H](OC(=O)c3ccccc3)[C@]3(O)C[C@H](OC(=O)[C@H](O)[C@@H](NC(=O)c4ccccc4)c4ccccc4)C(C)=C1C3(C)C)[C@]1(OC(C)=O)CO[C@@H]1C[C@@H]2O + Cc1cnc(CNC(=O)c2c(=O)c3ccc(N4CCCN(C)CC4)nc3n3c2sc2ccccc23)cn1
Second compound 0.0316 µM
  pIC50: > 7.50
Second compound 0.1 µM
  pIC50: > 7.50
Second compound 0.316 µM
  pIC50: > 7.50
Second compound 1 µM
  pIC50: > 7.50
Second compound 3.16 µM
  pIC50: > 7.50
Second compound 10 µM
  pIC50: > 7.50
[1]
  viability, T/C: 42.7%
[2]
  viability, T/C: 17.2%
[3]
  viability, T/C: 21.4%
[4]
  viability, T/C: 18.4%
[5]
  viability, T/C: 20.4%
[6]
  viability, T/C: 24.9%
[7]
  viability, T/C: 44.1%
[8]
  viability, T/C: 22.9%
[9]
  viability, T/C: 23.9%
[10]
  viability, T/C: 21.6%
[11]
  viability, T/C: 26.1%
[12]
  viability, T/C: 27.9%
[13]
  viability, T/C: 47.7%
[14]
  viability, T/C: 24.4%
[15]
  viability, T/C: 24.9%
[16]
  viability, T/C: 31.5%
[17]
  viability, T/C: 33.7%
[18]
  viability, T/C: 33.9%
[19]
  viability, T/C: 38.1%
[20]
  viability, T/C: 26.6%
[21]
  viability, T/C: 24.6%
[22]
  viability, T/C: 32.1%
[23]
  viability, T/C: 35.2%
[24]
  viability, T/C: 31.4%
[25]
  viability, T/C: 37.8%
[26]
  viability, T/C: 23.8%
[27]
  viability, T/C: 29.8%
[28]
  viability, T/C: 25.2%
[29]
  viability, T/C: 28.4%
[30]
  viability, T/C: 30.4%
[31]
  viability, T/C: 25.5%
[32]
  viability, T/C: 17%
[33]
  viability, T/C: 23%
[34]
  viability, T/C: 24.1%
[35]
  viability, T/C: 35.6%
[36]
  viability, T/C: 18.4%

## CCCS(=O)(=O)Nc1ccc(F)c(C(=O)c2c[nH]c3ncc(-c4ccc(Cl)cc4)cc23)c1F + Cc1cnc(CNC(=O)c2c(=O)c3ccc(N4CCCN(C)CC4)nc3n3c2sc2ccccc23)cn1
Second compound 0.0316 µM
  pIC50: 5.64
Second compound 0.1 µM
  pIC50: 5.83
Second compound 0.316 µM
  pIC50: 6.41
Second compound 1 µM
  pIC50: 7.46
Second compound 3.16 µM
  pIC50: > 7.50
Second compound 10 µM
  pIC50: > 7.50
[1]
  viability, T/C: 89.5%
[2]
  viability, T/C: 53.1%
[3]
  viability, T/C: 72%
[4]
  viability, T/C: 52.7%
[5]
  viability, T/C: 54.9%
[6]
  viability, T/C: 11.8%
[7]
  viability, T/C: 77.5%
[8]
  viability, T/C: 63.9%
[9]
  viability, T/C: 56.6%
[10]
  viability, T/C: 55.7%
[11]
  viability, T/C: 45.4%
[12]
  viability, T/C: 11.6%
[13]
  viability, T/C: 64.5%
[14]
  viability, T/C: 57%
[15]
  viability, T/C: 46.9%
[16]
  viability, T/C: 39.5%
[17]
  viability, T/C: 41.4%
[18]
  viability, T/C: 11.3%
[19]
  viability, T/C: 52.6%
[20]
  viability, T/C: 44.6%
[21]
  viability, T/C: 38.3%
[22]
  viability, T/C: 30.3%
[23]
  viability, T/C: 34.4%
[24]
  viability, T/C: 9.31%
[25]
  viability, T/C: 39.5%
[26]
  viability, T/C: 29.4%
[27]
  viability, T/C: 28.8%
[28]
  viability, T/C: 25.9%
[29]
  viability, T/C: 30.4%
[30]
  viability, T/C: 0.11%
[31]
  viability, T/C: 31.3%
[32]
  viability, T/C: 31.3%
[33]
  viability, T/C: 22.9%
[34]
  viability, T/C: 23.3%
[35]
  viability, T/C: 7.59%
[36]
  viability, T/C: 0.33%
